# Data reported in the METLIN SMRT retention time set (Domingo-Almenara et al. 2019).
# Test: gradient 5% acetonitrile 3 min, to 50% in 2 min, to 85% in 15 min, held 3 min, 100 µL/min
# Settings: column: Zorbax Extend-C18 2.1 x 50 mm; eluents: water / acetonitrile, 0.1% formic acid
# Method in brief: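 Pure standards were run in mixtures of ~100 molecules by HPLC coupled to a quadrupole time-of-flight mass spectrometer. The column was a Zorbax Extend-C18 (2.1 × 50 mm, 1.8 μm) at 100 μL/min, with water and acetonitrile each containing 0.1% formic acid, in positive and negative ionization mode. Dead and dwell volumes were 40 μL and 900 μL. Retention time was taken from computationally picked adduct peaks, each manually inspected, with data collected over 3 months.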
row,SMILES,RP-LC retention time [s]
1,Cc1c(-c2nnc(C3CC3)o2)c(S(=O)(=O)N2CCN(C(C)C)CC2)c(C)n1C,610
2,CCN1C(=O)COc2ccc(-c3nc(NC(=O)CC(C)C)sc3C)cc21,962
3,O=C(NCCc1cnc[nH]1)c1ccc2nc(CCc3ccccc3)oc2c1,641
4,Cc1ccc(NC(=O)CN2C(=O)CCc3cc(S(=O)(=O)N4CCCCC4C)ccc32)c(C)c1 (stereo not given),945
5,Cc1ccc(NC(=O)N2CCC(n3cnc4ccc(C)cc4c3=O)CC2)c(Cl)c1,865
6,Clc1ccc(-c2nc3ccc(Cl)cn3c2Nc2ccc3c(c2)OCCO3)cc1,915
7,Cn1cc(-c2nc(C(=O)NCc3cccc(Cl)c3)cs2)c2cccnc21,964
8,COc1ccc(-c2csc(Cc3nc(-c4ccccc4Cl)no3)n2)cc1,1160
9,Cc1cc(C)c2[nH]c3c(c(=O)c2c1)CN(CC(=O)Nc1ccc2c(c1)OCCO2)CC3,604
10,Cc1nc(-c2ccccc2)cc2nn(CC(=O)NC(C)CCc3ccccc3)c(=O)n12 (stereo not given),989
11,COc1ccc(Cl)cc1NC(=O)CSc1nnc2c3cc(-c4ccc(F)cc4)nn3ccn12,996
12,N#Cc1ccc(NC(=O)Cn2cccc(-c3nc(-c4ccccc4)no3)c2=O)cc1,837
13,c1ccc(Sc2ncccn2)nc1,662
14,COc1ccc(-c2nnc(-c3ccccc3Cl)o2)cc1S(=O)(=O)N(C)C,895
15,CCc1ccc(S(=O)(=O)N2CCC(C)(C(=O)NCc3ccccc3C)CC2)cc1,1020
16,COc1cc(/C=C2/C(=O)N(c3ccccc3)N=C2C)ccc1OCC(=O)Nc1ccccc1,1080
17,CCn1c(=O)c2ccccc2n(Cc2nc(-c3ccc(F)c(Br)c3)no2)c1=O,1120
18,CCCCC(=O)Nc1cnc(N2CCNCC2)c(C(=O)N2CCCC2)c1,595
19,CC(C)COC(=O)Nc1nc(CC(=O)Nc2ccccc2C(N)=O)cs1,703
20,CC(=O)Nc1ccc(Br)cc1C(=O)C(=O)NCCc1c[nH]c2ccccc12,876
21,COc1ccc(NC(=O)Nc2cccc(-c3ccc(N4CCOCC4)nn3)c2)cc1F,675
22,Cc1nc2ccn(Cc3cccnc3)c(=O)c2cc1C(=O)N1CCOCC1,552

row,SMILES,RP-LC retention time [s]
1,COc1cc(OC)cc(C(=O)N(C)CCc2noc(C3CCCCC3)n2)c1,926
2,CN1C(=O)c2cc(C(=O)NCc3ccc(F)cc3)nn2CC1(C)C(=O)NC1CCCCC1 (stereo not given),791
3,COc1ccc(OC)c(NC(=O)c2cc(NC(=O)C(C)C)cc3nc(C)ccc23)c1,663
4,CC(=O)Nc1ccc(-n2cnc(C(=O)N3CCN(c4cccc(Cl)c4)CC3)c2)nc1,749
5,Cn1c(=O)c2cc(C(=O)NCc3cccnc3)nn2c2ccccc21,599
6,CCOc1nc2c(c(C)nn2-c2cccc(C)c2)c(C)c1CCC(=O)NCCc1c[nH]c2ccccc12,1260
7,Cn1cc(S(=O)(=O)N2CCCCC2)cc1C(=O)Nc1ccc2c(c1)OCO2,924
8,COc1ccccc1CNC(=O)C1CCCN1S(=O)(=O)c1ccc2c(c1)C(C)(C)C(=O)N2C (stereo not given),843
9,Cc1ccc2c(c1)N(S(C)(=O)=O)CCC(C(=O)NCCC1=CCCCC1)O2 (stereo not given),993
10,O=S(=O)(NC1CCCCC1)c1ccc(-c2cc(C(F)(F)F)on2)o1,1120
11,O=C(C1CC(=O)N(c2ccc(F)cc2)C1)N1CCC(c2c[nH]c3ccccc23)CC1 (stereo not given),810
12,CCOC(=O)N1CCN(c2nc(-c3cccc([N+](=O)[O-])c3)cs2)CC1,1080
13,O=C(c1ccsc1)N1CC(n2cc(C(=O)N3CCOCC3)nn2)C1,609
14,O=C(Nc1ccc2c(c1)OCCO2)C1CCN(S(=O)(=O)c2ccc3[nH]c(=O)ccc3c2)CC1,691
15,CCC(=O)NCc1nc2c(n1CC)CN(C(=O)c1ccc(Br)cc1)CC2,606
16,CC1CCN(c2cc(-n3cnc(C(=O)N4CCSCC4)c3)ncn2)CC1,719
17,COCCCNC(=O)C1CCN(Cc2cc3ccccc3n2Cc2ccccc2Cl)CC1,713
18,CCc1nnc(-c2ccc(NS(=O)(=O)c3cccc(OC)c3)cc2)o1,801
19,O=S(=O)(c1cccc(-c2nc(-c3ccccc3)no2)c1)N1CCC2(CC1)OCCO2,784
20,CC(C)(C)c1nnc(NC(=O)C2CCN(C(=O)c3cccc(F)c3)CC2)s1,765
21,CCCn1c2ccccc2c2cnn(CC(=O)NCCN3CC(C)CC(C)C3)c(=O)c21 (stereo not given),701

# More lines, now with the values ahead:
row,RP-LC retention time [s],SMILES
1,738,Cn1c(=O)n(C)c2cc(CNc3cc(C(=O)O)ccc3Cl)ccc21
2,908,CC1CCCN(c2ccc(-c3noc(CN4CCN(c5ccccn5)CC4)n3)cn2)C1 (stereo not given)
3,740,Cc1nc(CC(=O)Nc2ccc(F)cc2Cl)sc1C(=O)NC1CC1
4,753,Cc1nc(N2CCN(Cc3ccc4c(c3)OCO4)CC2)nc2c1C(=O)CC(c1cccs1)C2 (stereo not given)
5,762,C=CCN1C(=O)COc2ccc(-c3csc(NC(C)=O)n3)cc21
6,848,COC(=O)C1=CN(c2ccccc2C)c2ccccc2S1(=O)=O
7,1050,CCc1nc(-c2csc(S(=O)(=O)N3CCC(C(=O)N4CCc5ccccc54)CC3)c2)no1
8,720,CCS(=O)(=O)Nc1cccc(-c2nc3cccnc3s2)c1
9,769,Cc1noc2ncn(CC(=O)NCc3ccc(Cl)cc3)c(=O)c12
10,962,CCc1ccccc1NC(=O)N(C)CCc1noc(COc2ccccc2)n1
11,611,Cc1noc2ncnc(N3CCCC(C(=O)N4CCN(Cc5ccc6c(c5)OCO6)CC4)C3)c12 (stereo not given)
12,607,NC(=O)c1cc(N2CCCC2)nc2c(Cl)cccc12
13,946,COc1ccc(-c2noc(C3CCCN3C(=O)c3cccc(F)c3)n2)cc1 (stereo not given)
14,967,COc1ccc(-c2nnc(-c3cc(S(=O)(=O)NC(C)C)ccc3Cl)o2)cc1
15,636,CN1CCN(C(=O)C2CCN(S(=O)(=O)c3ccc(-c4noc(C5CC5)n4)cc3)CC2)CC1
16,929,CCOC(=O)c1nc(Nc2ccc(C)cc2Cl)c2ccccc2n1
17,1120,COc1ccc(N2CCN(C(=O)c3cc4c(-c5cccs5)nn(-c5ccccc5)c4n3C)CC2)cc1
18,659,Cc1cc2[nH]c(C(=O)Nc3ccccc3Br)c(CN(C)C)c2s1
19,638,CCc1nnc2nc(N3CCN(C(=O)c4ccc(Cl)s4)CC3)cc(C)n12
20,756,CC1CCN(C(=O)c2cc(S(=O)(=O)N3CCCC(C(=O)Nc4nccs4)C3)c[nH]2)CC1 (stereo not given)
21,728,CCCC(=O)N1CCc2c(c(C(=O)NCc3ccc4c(c3)OCO4)nn2C)C1
22,709,COc1cccc(N2CCN(C(=O)C3CCN(C(=O)C4Sc5ccccc5NC4=O)CC3)CC2)c1 (stereo not given)
